Holding throughout (assay type): cell-based
In assay [1] the test system is TE-1. The assay is described as follows: CCK-8 cell viability assay. The conditions noted are these: Homo sapiens; TE-1 cells, CCK-8, 72 hours; read-out: IC50, proliferation inhibition. The method, then:
(§1) Cell viability was measured using Cell Counting Kit-8 (Dojindo, Japan) according to the manufacturer's instructions. In short, cells were inoculated in a 96-well plate at 3000 to 4000 cells/well in the presence of a single drug or a combination of drugs for 72 hours. After 72 hours, CCK-8 reagent (10 μL/well) was added and incubated at 37° C. for 1-2 hours, and absorbance readings at 450 nm were obtained. The IC50 values were calculated by using GraphPad Prism version 6.0.0 (GraphPad Software, San Diego, Calif. USA) for Windows. […] The expression difference of FAK gene between normal esophageal tissue and esophageal cancer tissue was determined by analyzing the TCGA database source information in the GEPIA database (http://gepia.cancer-pku.cn/), and the correlation between the FAK gene and the EGFR gene in esophageal cancer was determined by analyzing the TCGA database source information using the Pearson test. The basic protein expression levels for the following proteins in 6 esophageal cancer cell lines (TE-10, TE-1, YES-2, KYSE-520, KYSE-510, KYSE-150) were detected by Western blot method: […]

Assay [2] deals with TE-10. The assay is described as follows: CCK-8 cell viability assay. The conditions noted are these: Homo sapiens; TE-10 cells, CCK-8, 72 hours; read-out: IC50, proliferation inhibition. The method, then: as §1
Background: Tetrazolium assays rely on reduction of a dye to a coloured formazan, in cell work by metabolically active cells.

For assay [3], the system named is KYSE-510. Briefly: CCK-8 cell viability assay. The conditions noted are these: Homo sapiens; KYSE-510 cells, CCK-8, 72 hours; read-out: IC50, proliferation inhibition. On the procedure: as §1
Assay [4] has as its system YES-2 cells. The assay is described as follows: Cell migration (Transwell) assay. Particulars: 0.5 μM Compound 5, 0.25 μM Ibrutinib or both. The method, then: The culture medium was sucked into a chamber of Transwell (PC membrane, pore size 8.0 μm, Corning, N.Y., USA), and then the chamber was placed in a 24-well plate containing 750 μl of 50% FBS medium. After incubation for 24 to 30 hours, the chamber was taken out, the medium in the chamber was sucked out, and the redundant cells in the chamber were wiped off with a cotton swab. The chamber was placed in paraformaldehyde to perform fixation for 15 minutes, and staining was performed with 0.5% crystal violet at room temperature for 15 minutes. Cell migration activity was described as a relative number of the cells that exited the chamber.
(1) The experimental method was as described in the items (1), (2), (5) of Example 2. […] The changes in signaling pathway of related proteins were determined by Western blotting assay.

Assay [5] relates to YES-2. The assay is described as follows: CCK-8 cell viability assay. Particulars: read-out: IC50, proliferation inhibition. The method, then: (§2) Cell viability was measured using Cell Counting Kit-8 (Dojindo, Japan) according to the manufacturer's instructions. In short, cells were inoculated in a 96-well plate at 3000 to 4000 cells/well in the presence of a single drug or a combination of drugs for 72 hours. After 72 hours, CCK-8 reagent (10 μL/well) was added and incubated at 37° C. for 1-2 hours, and absorbance readings at 450 nm were obtained. The IC50 values were calculated by using GraphPad Prism version 6.0.0 (GraphPad Software, San Diego, Calif. USA) for Windows.
(§3) (1) The experimental method was described in item (1) and item (5) of Example 2. The expression difference of FAK gene between normal esophageal tissue and esophageal cancer tissue was determined by analyzing the TCGA database source information in the GEPIA database (http://gepia.cancer-pku.cn/), and the correlation between the FAK gene and the EGFR gene in esophageal cancer was determined by analyzing the TCGA database source information using the Pearson test. The basic protein expression levels for the following proteins in 6 esophageal cancer cell lines (TE-10, TE-1, YES-2, KYSE-520, KYSE-510, KYSE-150) were detected by Western blot method: EGFR, phosphorylated-EGFR (p-EGFR, Tyr1068), FAK, phosphorylated-FAK (p-FAK, Tyr397), BTK, C-Myc, phosphorylated-C-Myc (p-C-Myc), in which f3-tubulin was used as internal reference protein.
(§4) (1) The experimental methods were as described in the items (1), (3) and (4) of Example 2.

Assay [6] has as its system KYSE-520. Briefly: CCK-8 cell viability assay. Particulars: Homo sapiens; KYSE-520 cells, CCK-8, 72 hours; read-out: IC50, proliferation inhibition. On the procedure: as §2, §3, §4
The test system of assay [7] is KYSE-150. The assay is described as follows: CCK-8 cell viability assay. Particulars: Homo sapiens; KYSE-150 cells, CCK-8, 72 hours; read-out: IC50, proliferation inhibition. The method, then: as §2, §3, §4

Like-named read-outs stand apart in the source and are kept apart here.

Consider `Cc1cc(Nc2ncc(Cl)c(Nc3ccccc3S(=O)(=O)C(C)C)n2)c(OC(C)C)cc1C1=CCN(C2CCOCC2)CC1` [Compound 5, 5-chloro-N^2-(2-isopropoxy-5-methyl-4-(1-(tetrahydro-2H-pyran-4-yl)-1,2,3,6-tetrahydropyridin-4-yl)phenyl)-N^4-(2-(isopropylsulfonyl)phenyl)pyrimidine-2,4-diamine], for which the IC50 in assay [1] amounted to 2210 nM; in assay [2], 2600 nM; in assay [3], 2270 nM; in assay [5] (YES-2 cells, CCK-8, 72 hours), 956 nM; in assay [6], 825 nM; in assay [7], 2310 nM. The cell migration result in assay [4] is “cell migration in certain extent”.
In the case of `C=CC(=O)N1CCC[C@@H](n2nc(-c3ccc(Oc4ccccc4)cc3)c3c(N)ncnc32)C1` [Ibrutinib], the IC50 was found to be 9880 nM in assay [1]; 3010 nM in assay [2]; 4420 nM in assay [3]; 177 nM in assay [5] (72 h); 245 nM in assay [6]; 1220 nM in assay [7]. Moreover, the cell migration entry in assay [4] is listed as “cell migration in certain extent”.

For the origin of these results see patent US20220117964A1, “COMBINATION OF FAK INHIBITOR AND BTK INHIBITOR FOR TREATING A DISEASE” (ASCENTAGE PHARMA (SUZHU) CO., LTD., priority 2019, published 2022).
